Experimental findings from ChEMBL document CHEMBL1159136, “Dipeptide mimetics can substitute for the receptor activation domain resulting in highly potent analogues of hPTH(136)” (Bioorg Med Chem Lett, 1996) are described below.

Peptide text beside a SMILES is read from it. * marks the point of attachment. X1 = CC(C)[C@H](/C=C(\Cl)[C@H](C)N)C(=O)*; X2 = CC(C)[C@H](/C=C(\F)[C@H](C)N)C(=O)*; X3 = C/C(=C\[C@H](C(=O)*)C(C)C)[C@H](C)N

Assay [1] deals with OK-1. The assay can be described thus: Compound was evaluated for the intrinsic activity for accumulation of cyclic AMP in OK-1 cells. Format: functional, opossum.
In assay [2] the test system is SAOS-2. In words: Compound was evaluated for the accumulation of cyclic AMP in SaOS-2 (human osteosarcoma) cells. Format: functional, cell-based.
Assay [3] deals with UMR106-06. The assay can be described thus: Compound was evaluated for the intrinsic activity for accumulation of cyclic AMP in UMR10606 (rat osteosarcoma) cells. Format: functional.
Assay [4] deals with OK-1. The assay can be described thus: Displacement of [125I]-chick PTHrP-(1-36)-NH2 from opossum (OK-1) kidney cells. Format: functional.
For assay [5], the system named is OK-1. In words: Compound was evaluated for the accumulation of cyclic AMP in OK-1 cells. Format: functional, cell-based, opossum.
Assay [6] has as its system SAOS-2. In words: Compound was evaluated for the intrinsic activity for accumulation of cyclic AMP in SaOS-2 (human osteosarcoma) cells. In kind it is functional.
The subject of assay [7] is UMR106-06. The assay can be described thus: Compound was evaluated for the accumulation of cyclic AMP in UMR10606 (rat osteosarcoma) cells. In kind it is functional, cell-based.
In assay [8] the test system is OK-1. The assay can be described thus: Accumulation of cyclic AMP in OK-1 cells. In kind it is functional, cell-based, opossum.

Take `CC[C@H](C)[C@H](NC(=O)[C@H](CCC(=O)O)NC(=O)[C@H](CO)NC(=O)[C@@H](NC(=O)[C@@H](N)CO)C(C)C)C(=O)N[C@@H](CCC(N)=O)C(=O)N[C@@H](CC(C)C)C(=O)N[C@@H](CCSC)C(=O)N[C@@H](Cc1c[nH]cn1)C(=O)N[C@@H](CC(N)=O)C(=O)N[C@@H](CC(C)C)C(=O)NCC(=O)N[C@@H](CCCCN)C(=O)N[C@@H](Cc1c[nH]cn1)C(=O)N[C@@H](CC(C)C)C(=O)N[C@@H](CC(N)=O)C(=O)N[C@@H](CO)C(=O)N[C@@H](CCSC)C(=O)N[C@@H](CCC(=O)O)C(=O)N[C@@H](CCCN=C(N)N)C(=O)N[C@H](C(=O)N[C@@H](CCC(=O)O)C(=O)N[C@@H](Cc1c[nH]c2ccccc12)C(=O)N[C@@H](CC(C)C)C(=O)N[C@@H](CCCN=C(N)N)C(=O)N[C@@H](CCCCN)C(=O)N[C@@H](CCCCN)C(=O)N[C@@H](CC(C)C)C(=O)N[C@@H](CCC(N)=O)C(=O)N[C@@H](CC(=O)O)C(=O)N[C@H](C(=O)N[C@@H](Cc1c[nH]cn1)C(=O)N[C@@H](CC(N)=O)C(=O)N[C@@H](Cc1ccccc1)C(=O)N[C@H](C(=O)N[C@@H](C)C(N)=O)C(C)C)C(C)C)C(C)C`: the Intrinsic activity in the assay with OK-1 [1] is 1; with UMR106-06 [3] it was 0.98; with SAOS-2 [6], 0.96. The EC50 in the assay with SAOS-2 [2] (Homo sapiens, SAOS-2) was 2.3 nM; in the assay on OK-1 [5] it was 4.2 nM; in the assay with UMR106-06 [7] (Rattus norvegicus, UMR106-06), 3.3 nM. Further, in the assay with OK-1 [4], the negative-log KD (pKD) is recorded as 8.6.

With `CC[C@H](C)[C@H](NC(=O)[C@H](CCC(=O)O)NC(=O)[C@H](CO)NC(=O)[C@@H](/C=C(\Cl)[C@H](C)N)C(C)C)C(=O)N[C@@H](CCC(N)=O)C(=O)N[C@@H](CC(C)C)C(=O)N[C@@H](CCSC)C(=O)N[C@@H](Cc1c[nH]cn1)C(=O)N[C@@H](CC(N)=O)C(=O)N[C@@H](CC(C)C)C(=O)NCC(=O)N[C@@H](CCCCN)C(=O)N[C@@H](Cc1c[nH]cn1)C(=O)N[C@@H](CC(C)C)C(=O)N[C@@H](CC(N)=O)C(=O)N[C@@H](CO)C(=O)N[C@@H](CCSC)C(=O)N[C@@H](CCC(=O)O)C(=O)N[C@@H](CCCN=C(N)N)C(=O)N[C@H](C(=O)N[C@@H](CCC(=O)O)C(=O)N[C@@H](Cc1c[nH]c2ccccc12)C(=O)N[C@@H](CC(C)C)C(=O)N[C@@H](CCCN=C(N)N)C(=O)N[C@@H](CCCCN)C(=O)N[C@@H](CCCCN)C(=O)N[C@@H](CC(C)C)C(=O)N[C@@H](CCC(N)=O)C(=O)N[C@@H](CC(=O)O)C(=O)N[C@H](C(=O)N[C@@H](Cc1c[nH]cn1)C(=O)N[C@@H](CC(N)=O)C(=O)N[C@@H](Cc1ccccc1)C(=O)N[C@H](C(=O)N[C@@H](C)C(N)=O)C(C)C)C(C)C)C(C)C` (X1-SEIQLMHNLGKHLNSMERVEWLRKKLQDVHNFVA-NH2), the figures for the Intrinsic activity with OK-1 [1], in the assay with UMR106-06 [3] and in the assay with SAOS-2 [6] were 1.1, 1 and 1, respectively. Moreover, the EC50 came out at 0.85 nM in the assay with SAOS-2 [2] (Homo sapiens, SAOS-2); 7.9 nM in the assay on OK-1 [8] (opossum, OK-1); 0.65 nM in the assay on UMR106-06 [7] (Rattus norvegicus, UMR106-06). This molecule displayed a pKD in the assay with OK-1 [4] of 8.9.

As to `CC[C@H](C)[C@H](NC(=O)[C@H](CCC(=O)O)NC(=O)[C@H](CO)NC(=O)[C@@H](/C=C(\F)[C@H](C)N)C(C)C)C(=O)N[C@@H](CCC(N)=O)C(=O)N[C@@H](CC(C)C)C(=O)N[C@@H](CCSC)C(=O)N[C@@H](Cc1c[nH]cn1)C(=O)N[C@@H](CC(N)=O)C(=O)N[C@@H](CC(C)C)C(=O)NCC(=O)N[C@@H](CCCCN)C(=O)N[C@@H](Cc1c[nH]cn1)C(=O)N[C@@H](CC(C)C)C(=O)N[C@@H](CC(N)=O)C(=O)N[C@@H](CO)C(=O)N[C@@H](CCSC)C(=O)N[C@@H](CCC(=O)O)C(=O)N[C@@H](CCCN=C(N)N)C(=O)N[C@H](C(=O)N[C@@H](CCC(=O)O)C(=O)N[C@@H](Cc1c[nH]c2ccccc12)C(=O)N[C@@H](CC(C)C)C(=O)N[C@@H](CCCN=C(N)N)C(=O)N[C@@H](CCCCN)C(=O)N[C@@H](CCCCN)C(=O)N[C@@H](CC(C)C)C(=O)N[C@@H](CCC(N)=O)C(=O)N[C@@H](CC(=O)O)C(=O)N[C@H](C(=O)N[C@@H](Cc1c[nH]cn1)C(=O)N[C@@H](CC(N)=O)C(=O)N[C@@H](Cc1ccccc1)C(=O)N[C@H](C(=O)N[C@@H](C)C(N)=O)C(C)C)C(C)C)C(C)C` (X2-SEIQLMHNLGKHLNSMERVEWLRKKLQDVHNFVA-NH2), the Intrinsic activity with OK-1 [1] is 1; with UMR106-06 [3], 1; in the assay on SAOS-2 [6], 0.89. In addition, the EC50 in the assay with SAOS-2 [2] (Homo sapiens, SAOS-2) came out at 1.5 nM; with OK-1 [8] (opossum, OK-1), 4.4 nM; in the assay on UMR106-06 [7] (Rattus norvegicus, UMR106-06), 1.6 nM. This molecule displayed a pKD with OK-1 [4] of 8.9.

Turning to `CC[C@H](C)[C@H](NC(=O)[C@H](CCC(=O)O)NC(=O)[C@H](CO)NC(=O)[C@@H](/C=C(\C)[C@H](C)N)C(C)C)C(=O)N[C@@H](CCC(N)=O)C(=O)N[C@@H](CC(C)C)C(=O)N[C@@H](CCSC)C(=O)N[C@@H](Cc1c[nH]cn1)C(=O)N[C@@H](CC(N)=O)C(=O)N[C@@H](CC(C)C)C(=O)NCC(=O)N[C@@H](CCCCN)C(=O)N[C@@H](Cc1c[nH]cn1)C(=O)N[C@@H](CC(C)C)C(=O)N[C@@H](CC(N)=O)C(=O)N[C@@H](CO)C(=O)N[C@@H](CCSC)C(=O)N[C@@H](CCC(=O)O)C(=O)N[C@@H](CCCN=C(N)N)C(=O)N[C@H](C(=O)N[C@@H](CCC(=O)O)C(=O)N[C@@H](Cc1c[nH]c2ccccc12)C(=O)N[C@@H](CC(C)C)C(=O)N[C@@H](CCCN=C(N)N)C(=O)N[C@@H](CCCCN)C(=O)N[C@@H](CCCCN)C(=O)N[C@@H](CC(C)C)C(=O)N[C@@H](CCC(N)=O)C(=O)N[C@@H](CC(=O)O)C(=O)N[C@H](C(=O)N[C@@H](Cc1c[nH]cn1)C(=O)N[C@@H](CC(N)=O)C(=O)N[C@@H](Cc1ccccc1)C(=O)N[C@H](C(=O)N[C@@H](C)C(N)=O)C(C)C)C(C)C)C(C)C` (X3-SEIQLMHNLGKHLNSMERVEWLRKKLQDVHNFVA-NH2), the Intrinsic activity with OK-1 [1], in the assay on UMR106-06 [3] and with SAOS-2 [6] was 1 each time. Further, the EC50 in the assay on SAOS-2 [2] (Homo sapiens, SAOS-2) stood at 1.1 nM; with OK-1 [8] (opossum, OK-1), 4.4 nM; in the assay on UMR106-06 [7] (Rattus norvegicus, UMR106-06), 1.2 nM. The same molecule yielded a pKD with OK-1 [4] of 9.

Consider `CC[C@H](C)[C@H](NC(=O)[C@H](CCC(=O)O)NC(=O)[C@H](CO)NC(=O)[C@@H](NC(=O)[C@H](C)N)C(C)C)C(=O)N[C@@H](CCC(N)=O)C(=O)N[C@@H](CC(C)C)C(=O)N[C@@H](CCSC)C(=O)N[C@@H](Cc1c[nH]cn1)C(=O)N[C@@H](CC(N)=O)C(=O)N[C@@H](CC(C)C)C(=O)NCC(=O)N[C@@H](CCCCN)C(=O)N[C@@H](Cc1c[nH]cn1)C(=O)N[C@@H](CC(C)C)C(=O)N[C@@H](CC(N)=O)C(=O)N[C@@H](CO)C(=O)N[C@@H](CCSC)C(=O)N[C@@H](CCC(=O)O)C(=O)N[C@@H](CCCN=C(N)N)C(=O)N[C@H](C(=O)N[C@@H](CCC(=O)O)C(=O)N[C@@H](Cc1c[nH]c2ccccc12)C(=O)N[C@@H](CC(C)C)C(=O)N[C@@H](CCCN=C(N)N)C(=O)N[C@@H](CCCCN)C(=O)N[C@@H](CCCCN)C(=O)N[C@@H](CC(C)C)C(=O)N[C@@H](CCC(N)=O)C(=O)N[C@@H](CC(=O)O)C(=O)N[C@H](C(=O)N[C@@H](Cc1c[nH]cn1)C(=O)N[C@@H](CC(N)=O)C(=O)N[C@@H](Cc1ccccc1)C(=O)N[C@H](C(=O)N[C@@H](C)C(N)=O)C(C)C)C(C)C)C(C)C` (stereo in doubt; form 1), for which the Intrinsic activity with OK-1 [1] is recorded as 1; in the assay on UMR106-06 [3], 1; with SAOS-2 [6] it was 0.95. Moreover, the EC50 in the assay with SAOS-2 [2] (saos-2) came to 3 nM; in the assay on OK-1 [8] (ok-1), 5.9 nM; with UMR106-06 [7] (umr106-06) it was 3.3 nM. Also, the pKD with OK-1 [4] amounted to 8.4.

As to `CC[C@H](C)[C@H](NC(=O)[C@H](CCC(=O)O)NC(=O)[C@H](CO)NC(=O)[C@@H](NC(=O)[C@H](C)N)C(C)C)C(=O)N[C@@H](CCC(N)=O)C(=O)N[C@@H](CC(C)C)C(=O)N[C@@H](CCSC)C(=O)N[C@@H](Cc1c[nH]cn1)C(=O)N[C@@H](CC(N)=O)C(=O)N[C@@H](CC(C)C)C(=O)NCC(=O)N[C@@H](CCCCN)C(=O)N[C@@H](Cc1c[nH]cn1)C(=O)N[C@@H](CC(C)C)C(=O)N[C@@H](CC(N)=O)C(=O)N[C@@H](CO)C(=O)N[C@@H](CCSC)C(=O)N[C@@H](CCC(=O)O)C(=O)N[C@@H](CCCN=C(N)N)C(=O)N[C@H](C(=O)N[C@@H](CCC(=O)O)C(=O)N[C@@H](Cc1c[nH]c2ccccc12)C(=O)N[C@@H](CC(C)C)C(=O)N[C@@H](CCCN=C(N)N)C(=O)N[C@@H](CCCCN)C(=O)N[C@@H](CCCCN)C(=O)N[C@@H](CC(C)C)C(=O)N[C@@H](CCC(N)=O)C(=O)N[C@@H](CC(=O)O)C(=O)N[C@H](C(=O)N[C@@H](Cc1c[nH]cn1)C(=O)N[C@@H](CC(N)=O)C(=O)N[C@@H](Cc1ccccc1)C(=O)N[C@H](C(=O)N[C@@H](C)C(N)=O)C(C)C)C(C)C)C(C)C` (stereo in doubt; form 2), the Intrinsic activity in the assay on OK-1 [1] came out at 1; in the assay with UMR106-06 [3], 0.95; in the assay with SAOS-2 [6] it was 1. Also, the EC50 in the assay on SAOS-2 [2] (Homo sapiens, SAOS-2) was found to be 2.4 nM; in the assay with OK-1 [8] (opossum, OK-1) it was 7 nM; with UMR106-06 [7] (umr106-06), 1 nM. This molecule also displayed a pKD in the assay on OK-1 [4] of 8.1.
